Here are results for 31 compounds from patent US7067520B2, “Preventive or therapeutic medicines for diabetes containing fused-heterocyclic compounds or their salts” (Ishihara Sangyo Kaisha, Ltd., priority 2000, dated 2006).

By melting point is commonly meant the temperature of the solid-liquid transition.

Compound `CSc1nc2ccnn2c(OCCOc2ccccc2)c1C#N` [compound 182] showed a melting point of 125 °C.
`COC(=O)c1ccc(Nc2c(C#N)c(SC)nc3ccnn23)cc1` [compound 171] showed a melting point of 205 to 206 °C.
In turn, `COc1cccc(Nc2c(C#N)c(SC)nc3cc(C)nn23)c1` [compound 192] showed a melting point of 142 to 143 °C.
Compound `CSc1nc2ccnn2c(NCc2ccncc2)c1C(=O)OCc1ccccc1` [compound 147] registered a melting point of 122 to 123 °C.
As for `CSc1nc2ccnn2c(NCC#N)c1C#N` [compound 84], the figure is 207 °C; as for `C=CCSc1nc2ccnn2c(NCc2ccccc2)c1C#N` [compound 77], 90 to 91.5 °C; as for `CSc1nc2ccnn2c(NCCOc2ccccc2)c1C#N` [compound 181], 122 °C.
In the case of `CSc1nc2ccnn2c(NCc2ccc([N+](=O)[O-])cc2)c1C#N` [compound 16], the melting point amounted to 215 °C.
As for `COC(=O)c1ccc(CNc2c(C#N)c(SC)nc3ccnn23)cc1` [compound 23], the melting point is 171 °C.
Compound `CSc1nc2nccn2c(NCc2ccccc2)c1C#N` [compound 42] showed a melting point of 179 °C.
For the compound `CSc1nc2ccnn2c(Nc2ccc3ncsc3c2)c1C#N` [compound 166], the melting point was in the range of 140 to 141 °C.
With `CSc1nc2ccnn2c(Nc2ccc(C(=O)O)cc2)c1C#N` [compound 176] the figure was greater than 250 °C.
`CSc1nc2nc(SC)c(C#N)c(NCc3ccncc3)n2n1` [compound 38]: the melting point fell in the range of 230 to 233 °C.
`COc1ccc(CNc2c(C#N)c(SC)nc3ccnn23)cc1` [compound 56] gave a melting point of 137 °C.
`CSc1nc2ccnn2c(N)c1S(C)(=O)=O` [compound 58] had a melting point of 230 to 233 °C.
Compound `COC(=O)c1c(SC)nc2ccnn2c1Cl` [compound 119] had a melting point of 105 to 113 °C.
In the case of `CSc1nc2ccnn2c(NCc2ccco2)c1C#N` [Compound No. 78, 7-furfurylamino-5-methylthiopyrazolo[1,5-a]pyrimidine-6-carbonitrile], the melting point was determined as 110 °C.
`CSc1nc2ccnn2c(Nc2ccc(N(C)C)cc2)c1C#N` [compound 202] gave a melting point of 250 to 252 °C.
On to `COC(=O)c1c(SC)nc2ccnn2c1O` [compound 155], for which the melting point lay in the range of 192 to 194 °C.
On to `CSc1nc2ccnn2c(NCCC2OCCCO2)c1C#N` [compound 216], for which the melting point was in the range of 103 to 104 °C.
`C#CCSc1nc2ccnn2c(NCc2ccncc2)c1C#N` [compound 96] gave a melting point of 208.5 to 208.7 °C.
With `C=CCSc1nc2ccnn2c(NCc2ccncc2)c1C#N` [compound 76], the melting point is 178.8 to 179.8 °C.
Compound `CSc1nc2ccnn2c(NCC2CCCO2)c1C#N` (stereo not shown) [compound 212] yielded a melting point of 116 to 120 °C.
With `CSc1nc2ccnn2c(Nc2ccc3c(c2)CCC3)c1C#N` [compound 165], the melting point lay in the range of 146 to 148 °C.
`CSc1nc2ccnn2c(N)c1C#N` [compound 1, 7-amino-5-methylthiopyrazolo[1,5-a]pyrimidine-6-carbonitrile] returned a melting point greater than 240 °C.
`CSc1nc2ccnn2c(Cl)c1C(=O)OCc1ccccc1` [compound 146] gave a melting point of 52 to 54 °C.
Regarding `CSc1nc2ccnn2c(Nc2cccc(S(=O)(=O)N(C)C)c2)c1C#N` [compound 151], the melting point was 205 to 208 °C.
As for `COc1nc2ccnn2c(NCc2ccncc2)c1C#N` [compound 153], the figure is 193 to 195 °C; as for `CSc1nc2ccnn2c(NCc2ccncc2)c1C(=O)O` [compound 129], 155 to 157 °C.
With `N#Cc1c(SC2CCCC2)nc2ccnn2c1NCc1ccccc1` [compound 104], the melting point is 115.8 to 116.6 °C.
`CCOCSc1nc2ccnn2c(NCc2ccccc2)c1C#N` [compound 117] returned a melting point of 130.5 to 133.5 °C.
